Patent publication US4294838A, “Certain heterocyclic sulfoximide derivatives” (priority 1977, dated 1981)
≈ marks a conversion by molar mass, not a printed value. Like-named read-outs stand apart in the source and are kept apart here.

Assays:
[1] = Acute toxicity in mice (LD50, Litchfield and Wilcoxon); details: mouse, in vivo, male NRMI mice
Protocol: The acute toxicity has been determined in male mice (NRMI strain) weighing 17 to 21 g. The animals were fasted 24 hours prior to the trial. Water was offered ad libidum. The substances were administered subcutaneously and by using a gastric tube in increasing doses to groups consisting of 6 animals. The animals were observed over a period of 24 hours. The LD50 values were determined according to the method of Litchfield and Wilcoxon (Therap. Grundlagen der experimentellen Arzneimittelforschung--Ther. Fundamentals of Experimental Durg Research--1965--page 82). The findings were compiled as average values in the following tables: […]

[2] = system: acetylcholine-spasm (bronchospasm); assay: Bronchospasmolytic activity (Konzett and Roessler), acetylcholine-spasm; assay type: in vivo, guinea pigs; details: Cavia porcellus, iv, 2 min; guinea pig, i.v., 2 min before acetylcholine; read-out: ED100 Acetyl-choline (bronchospasmolytic)
Protocol: (§1) The method described by Konzett and Roessler was employed (Arch.exp.Path.Pharmak. 195, 72 (1940).
(§2) Experimental animals were guinea pigs weighing between 280 and 380 g. The animals were kept under urethane narcosis (1.5 g/kg i.m.) and their chests opened. The animals received artificial respiration by means of a respiratory pump. The respiratory pressure was adjusted by a mercury manometer. Every 4 minutes a bronchospasm was caused by intravenous application (vena jugularis) of spasmodics. These were acetylcholine and histamine. Two minutes prior to the injection of a spasmodic, the substances under investigation were administered, i.e. again by intravenous injection. […] With respect to the histamine-spasm they were active in the range of […].

[3] = system: histamine-spasm (bronchospasm); assay: Bronchospasmolytic activity (Konzett and Roessler), histamine-spasm; assay type: in vivo, guinea pigs; details: Cavia porcellus, iv, 2 min; guinea pig, i.v., 2 min before histamine
Protocol: as §1, §2

[4] = system: ileum preparations, acetylcholine spasm; assay: Spasmolytic activity on isolated ileum (Magnus), acetylcholine spasm; parameters: species or system Guinea pigs; details: Cavia porcellus, guinea pig ileum, 37° C, acetylcholine 4×10^-7 g/ml; for IC50: read-out: ED50 Acetylcholine (spasmolytic)
Protocol: (§3) The method described by Magnus was employed [Therap. Grundlagen der Experimentellen Arzneimittelforschung, Wiss. Verlagsgesellschaft, Stuttgart (1965) page 241].
(§4) Guinea pigs of both sexes weighing between 200 and 500 g were killed by cervical blow. After that they were allowed to bleed and then laparotomized. About 15 cm of the distal ileum were then placed into a Krebs-Henseleit-solution at 37° C.
(§5) Ileum preparations of about 1 cm length were fixed in a special vessel containing 25 ml of the Krebs-Henseleit-solution which were percolated by a gas mixture (Carbogen) consisting of 95% oxygen and 5% carbon dioxide. The temperature of the bath was maintained at 37° C. The movements of the ileum preparations were observed by a lampblack-kymograph.
(§6) Every 10 minutes single spasms were caused with solutions of acetylcholine (4×10^-7 g/ml) barium chloride (4×10^-4 g/ml) and histamine (8×10^-6 g/ml) in the Krebs-Henseleit-solution. Five minutes after application the spasms were stopped by rinsing the ileum segments with a Krebs-Henseleit-solution which was free of spasmodics. The tested compounds were added to ther Krebs-Henseleit-solution 2 minutes after causing the spasms.

[5] = system: ileum preparations, barium chloride spasm; assay: Spasmolytic activity on isolated ileum (Magnus), barium chloride spasm; parameters: species or system Guinea pigs; details: Cavia porcellus, guinea pig ileum, 37° C, barium chloride 4×10^-4 g/ml; for IC50: read-out: ED50 Barium-Chloride (spasmolytic)
Protocol: as §3, §4, §5, §6

[6] = system: ileum preparations, histamine spasm; assay: Spasmolytic activity on isolated ileum (Magnus), histamine spasm; parameters: species or system Guinea pigs; details: Cavia porcellus, guinea pig ileum, 37° C, histamine 8×10^-6 g/ml; for IC50: read-out: ED50 Histamine (spasmolytic)
Protocol: as §3, §4, §5, §6

[7] = po, w.i.g. (gastric tube), read-out: Acute Toxicity LD50, w.i.g.
[8] = sc, subcutaneous, read-out: Acute Toxicity LD50, S.C.

Row | Structure (SMILES) | LD50 at 24 h [1, 7] | LD50 at 24 h [1, 8] | ED100 [2] | ED100 [3] | IC50 [4] | IC50 [5] | IC50 [6] | IC100 ([4]; (ED100)) | IC100 ([5]; (ED100)) | IC100 ([6]; (ED100))
1 | CCN(CC)CCN=S(=O)(c1ccccc1)c1ccco1 (stereo not drawn) [Example 10, N-(2-Diethylaminoethyl)-S-(2-furyl)-S-phenyl-sulphoximide] | 400 mg/kg | 150 mg/kg | – | – | – | – | – | – | – | –
2 | CCN(CC)CCN=S(=O)(c1ccccc1)c1cccs1 (stereo not drawn) [Example 1, N-(2-Diethylaminoethyl)-S-phenyl-S-(2-thienyl)-sulphoximide] | 200 mg/kg | 150 mg/kg | 1 mg/kg | > 4 mg/kg | 1 µg/mL (≈ 3.1 µM) | 80 µg/mL (≈ 248 µM) | 5 µg/mL (≈ 15.5 µM) | – | – | –
3 | CCN(CC)CCN=S(=O)(c1ccccc1)c1ccccc1 [Sulfoxifen-Phosphate, N(2-Diethylaminoethyl)-diphenyl-sulfoximin, reference compound] | 180 mg/kg | 175 mg/kg | 4 mg/kg | 4 mg/kg | 0.1 µg/mL (≈ 0.316 µM) | 40 µg/mL (≈ 126 µM) | 1 µg/mL (≈ 3.16 µM) | 1 µg/mL | 80 µg/mL | 10 µg/mL
4 | O=S(=NCCN1CCCCC1)(c1cccs1)c1cccs1 [Example 6, N-(2-Piperidinoethyl)-S,S-bis-(2-thienyl)-sulphoximide] | 200 mg/kg | – | – | – | 5 µg/mL (≈ 14.7 µM) | 80 µg/mL (≈ 235 µM) | 10 µg/mL (≈ 29.4 µM) | – | – | –
5 | C[N+](C)(C)CCCN=S(=O)(c1ccccc1)c1cccs1 (stereo not drawn) [Example 2, N-(3-trimethylammoniumpropyl)-S-phenyl-S-(2-thienyl)-sulphoximide iodide] | > 400 mg/kg | 300 mg/kg | – | – | 5 µg/mL | – | – | – | – | –
6 | CCN(CC)CCN=S(=O)(c1cccs1)c1cccs1 [Example 5, N-(2-Diethylaminoethyl)-S,S-bis-(2-thienyl)-sulphoximide] | 250 mg/kg | 100 mg/kg | 2 mg/kg | > 8 mg/kg | 1 µg/mL (≈ 3.04 µM) | 40 µg/mL (≈ 122 µM) | 10 µg/mL (≈ 30.4 µM) | – | – | –
7 | CCN(CC)CCN=S(=O)(c1ccccc1)c1cccnc1 (stereo not drawn) [Example 12, N-(2-Diethylaminoethyl)-S-phenyl-S-(3-pyridyl)-sulphoximide] | 1600 mg/kg | – | – | – | – | – | – | – | – | –
8 | O=S(=NCCN1CCCC1)(c1ccccc1)c1cccs1 (stereo not drawn) [Example 3, N-(2-Pyrrolidinoethyl)-S-phenyl-S-(2-thienyl)-sulphoximide] | 150 mg/kg | – | – | – | > 1 µg/mL | – | 5 µg/mL (≈ 15.6 µM) | – | – | –
9 | O=S(=NCCN1CCOCC1)(c1cccs1)c1cccs1 [Example 7, N-(2-Morpholinoethyl)-S,S-bis-(2-thienyl)-sulphoximide] | 1000 mg/kg | – | – | – | 4 µg/mL (≈ 11.7 µM) | – | 40 µg/mL (≈ 117 µM) | – | – | –
10 | CCN(CC)CCN=S(=O)(c1ccsc1)c1ccsc1 [Example 9, N-(2-Diethylaminoethyl)-S,S-bis-(3-thienyl)-sulphoximide] | > 30 mg/kg | 30 mg/kg | 4 mg/kg | > 8 mg/kg | 0.25 µg/mL (≈ 0.761 µM) | – | 10 µg/mL (≈ 30.4 µM) | – | – | –
11 | CCN(CC)CCN=S(=O)(c1ccsc1)c1cccs1 (stereo not drawn) [Example 8, N-(2-Diethylaminoethyl)-S-(2-thienyl)-S-(3-thienyl)-sulphoximide] | < 300 mg/kg | 250 mg/kg | 2 mg/kg | 4 mg/kg | 0.5 µg/mL (≈ 1.52 µM) | 80 µg/mL (≈ 244 µM) | 2 µg/mL (≈ 6.09 µM) | – | – | –
12 | CCN(CC)CCN=S(=O)(c1ccccc1)c1ccsc1 (stereo not drawn) [Example 4, N-(2-Diethylaminoethyl)-S-phenyl-S-(3-thienyl)-sulphoximide] | 200 mg/kg | 150 mg/kg | > 2 mg/kg | > 8 mg/kg | 1 µg/mL (≈ 3.1 µM) | 40 µg/mL (≈ 124 µM) | 10 µg/mL (≈ 31 µM) | – | – | –
13 | CN(C)CCCN=S(=O)(c1ccccc1)c1cccs1 (centres unmarked) [Example 2] | < 800 mg/kg | 600 mg/kg | – | – | > 1 µg/mL | > 10 µg/mL | 50 µg/mL (≈ 162 µM) | – | – | –
